In patent US11744824B2, “2-amino-3-carbonyl imidazopyridine and pyrazolopyridine compounds” (1ST Biotherapeutics, Inc., priority 2020, dated 2023):

Molecular target: GST-tagged recombinant human RIP2 (Homo sapiens (Human), UniProt O43353)
Test: RIP2 Kinase Assay (ADP-Glo)
Assay type: biochemical
Settings: in vitro kinase activity, ATP 25 μM
Method: GST-tagged recombinant human RIP2 (25 ng) is incubated with 5 μL of compounds (0.5% DMSO), 5 μL of MBP (0.5 μg/μl) and 5 μL of ATP (25 μM) in buffer (40 mM Tris, 7.5; 20 mM MgCl2; 0.1 mg/ml BSA; 50 μM DTT). The assay was started by incubating the reaction mixture in a 96-well plate at 30° C. for 60 minutes. After the incubation, 25 μL ADP-Glo reagent was added, and the reaction was incubated at 30° C. for 40 minutes to stop the reaction and degrade residual ATP. The ADP product was then converted to ATP by adding 50 μL per well of detection reagent. Luminescence was detected after 30 minutes room temperature incubation with the Molecular device I3X plate reader. The IC50 values were calculated from a series of percent inhibition values determined at a range of inhibitor concentration using software routines as implemented in the GraphPad Prism 7 software and SigmaPlot 13.0.

GST-tagged recombinant human RIP2, sequence (O43353 whole entry): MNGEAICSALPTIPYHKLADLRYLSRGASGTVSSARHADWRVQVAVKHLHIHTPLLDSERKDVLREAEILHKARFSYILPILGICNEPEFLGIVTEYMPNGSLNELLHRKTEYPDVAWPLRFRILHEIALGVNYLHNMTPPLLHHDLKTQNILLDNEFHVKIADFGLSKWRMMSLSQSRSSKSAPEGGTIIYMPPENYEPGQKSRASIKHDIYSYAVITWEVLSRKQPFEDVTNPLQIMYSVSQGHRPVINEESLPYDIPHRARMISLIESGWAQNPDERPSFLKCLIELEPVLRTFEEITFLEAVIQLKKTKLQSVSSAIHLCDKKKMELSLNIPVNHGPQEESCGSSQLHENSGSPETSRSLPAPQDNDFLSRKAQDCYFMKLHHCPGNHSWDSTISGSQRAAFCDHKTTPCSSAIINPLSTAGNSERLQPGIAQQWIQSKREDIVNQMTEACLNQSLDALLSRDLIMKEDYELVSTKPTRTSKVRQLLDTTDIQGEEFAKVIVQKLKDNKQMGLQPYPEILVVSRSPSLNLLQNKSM

Row | SMILES | IC50
1 | Nc1nc2ccc(Br)cn2c1C(=O)C1CC1 [Example 1, (2-amino-6-bromoimidazo[1,2-a]pyridin-3-yl)(cyclopropyl)methanone] | > 1000 nM
2 | Cc1ccncc1-c1ccc2nc(N)c(C(=O)C3CC3)n2c1 [Example 2] | 101 to 500 nM
3 | Nc1nc2ccc(Br)cn2c1C(=O)[C@@H]1C[C@@H]1F [Example 4] | > 1000 nM
4 | CC(=O)c1c(N)nc2ccc(-c3cccc(F)c3C)cn12 [Example 6, 1-(2-amino-6-(3-fluoro-2-methylphenyl)imidazo[1,2-a]pyridin-3-yl)ethan-1-one] | 101 to 500 nM
5 | Cc1cc(F)ccc1-c1ccc2nc(N)c(C(=O)[C@@H]3C[C@@H]3F)n2c1 [Example 7] | 101 to 500 nM
6 | Nc1nc2ccc(-c3cccs3)cn2c1C(=O)[C@@H]1C[C@@H]1F [Example 8] | 101 to 500 nM
7 | Nc1nc2ccc(-c3cccc(F)c3C(F)(F)F)cn2c1C(=O)[C@@H]1C[C@@H]1F [Example 10] | > 1000 nM
8 | Cc1cccc(-c2ccc3nc(N)c(C(=O)[C@@H]4C[C@@H]4F)n3c2)c1C [Example 11] | 1 to 100 nM
9 | Cc1c(F)cccc1-c1ccc2nc(N)c(C(=O)c3ccccn3)n2c1 [Example 12] | 1 to 100 nM
10 | Cc1c(F)cccc1-c1ccc2nc(N)c(C(=O)c3ccccc3)n2c1 [Example 13] | 101 to 500 nM
11 | Cc1c(F)cccc1-c1ccc2nc(N)c(C(=O)C3CC3)n2c1 [Example 14] | 1 to 100 nM
12 | Cc1ccc(F)cc1-c1ccc2nc(N)c(C(=O)[C@@H]3C[C@@H]3F)n2c1 [Example 15] | 1 to 100 nM
13 | Cc1ccc(C)c(-c2ccc3nc(N)c(C(=O)[C@@H]4C[C@@H]4F)n3c2)c1 [Example 16] | 101 to 500 nM
14 | Cc1ccc(-c2ccc3nc(N)c(C(=O)[C@@H]4C[C@@H]4F)n3c2)c(C)c1 [Example 17] | 101 to 500 nM
15 | Cc1cccc(F)c1-c1ccc2nc(N)c(C(=O)[C@@H]3C[C@@H]3F)n2c1 [Example 18] | 101 to 500 nM
16 | Cc1c(-c2ccc3nc(N)c(C(=O)[C@@H]4C[C@@H]4F)n3c2)cccc1C(F)(F)F [Example 19] | 101 to 500 nM
17 | Cc1c(F)cccc1-c1ccc2nc(N)c(C(=O)C3CCC3)n2c1 [Example 20] | 101 to 500 nM
18 | Cc1c(F)cccc1-c1ccc2nc(N)c(C(=O)c3cnn(C)c3)n2c1 [Example 21] | 101 to 500 nM
19 | Cc1c(F)cccc1-c1ccc2nc(N)c(C(=O)C(C)(C)C)n2c1 [Example 22] | 101 to 500 nM
20 | CCCCC(=O)c1c(N)nc2ccc(-c3cccc(F)c3C)cn12 [Example 23] | 501 to 1000 nM

Row | SMILES | IC50
21 | Cc1c(F)cccc1-c1ccc2nc(NCCN(C)C)c(C(=O)[C@@H]3C[C@@H]3F)n2c1 [Example 24, (2-((2-(dimethylamino)ethyl)amino)-6-(3-fluoro-2-methylphenyl)imidazo[1,2-a]pyridin-3-yl)((1S,2S)-2-fluorocyclopropyl)methanone] | > 1000 nM
22 | Cc1cc(F)ccc1-c1ccc2nc(N)c(C(=O)[C@H]3C[C@@H]3F)n2c1 [Example 25] | 101 to 500 nM
23 | Cc1cccc(F)c1-c1ccc2nc(N)c(C(=O)[C@H]3C[C@@H]3F)n2c1 [Example 26] | 101 to 500 nM
24 | Nc1nc2ccc(-c3ccco3)cn2c1C(=O)[C@@H]1C[C@@H]1F [Example 27] | > 1000 nM
25 | Cc1scnc1-c1ccc2nc(N)c(C(=O)[C@@H]3C[C@@H]3F)n2c1 [Example 28, (2-amino-6-(5-methylthiazol-4-yl)imidazo[1,2-a]pyridin-3-yl)((1S,2S)-2-fluorocyclopropyl)methanone] | 101 to 500 nM
26 | Cc1ccsc1-c1ccc2nc(N)c(C(=O)[C@@H]3C[C@@H]3F)n2c1 [Example 29] | 101 to 500 nM
27 | Nc1nc2ccc(-c3cncs3)cn2c1C(=O)[C@@H]1C[C@@H]1F [Example 30] | > 1000 nM
28 | Cc1c(-c2ccc3nc(N)c(C(=O)[C@@H]4C[C@@H]4F)n3c2)ccc(F)c1F [Example 31] | 101 to 500 nM
29 | CC(=O)Nc1nc2ccc(-c3cccc(F)c3C)cn2c1C(C)=O [Example 33, N-(3-acetyl-6-(3-fluoro-2-methylphenyl)imidazo[1,2-a]pyridin-2-yl)acetamide] | > 1000 nM
30 | Nc1nc2ccc(-c3ccccc3Cl)cn2c1C(=O)[C@@H]1C[C@@H]1F [Example 34] | 101 to 500 nM
31 | Cc1c(F)cccc1-c1ccc2nc(N)c(C(=O)[C@H]3C[C@H]3F)n2c1 [Example 35] | 101 to 500 nM
32 | Cc1c(F)cccc1-c1ccc2nc(N)c(C(=O)C3CCN3C(=O)OC(C)(C)C)n2c1 (stereo not shown) [Example 36] | > 1000 nM
33 | CC(=O)c1c(N(C(C)=O)C(C)=O)nc2ccc(-c3cccc(F)c3C)cn12 [Example 37, N-acetyl-N-(3-acetyl-6-(3-fluoro-2-methylphenyl)imidazo[1,2-a]pyridin-2-yl)acetamide] | > 1000 nM
34 | CC(=O)c1ccc(-c2ccc3nc(N)c(C(=O)[C@@H]4C[C@@H]4F)n3c2)c(C)c1 [Example 38] | > 1000 nM
35 | Nc1nc2ccc(-c3ccc(N4CCOCC4)cc3)cn2c1C(=O)[C@@H]1C[C@@H]1F [Example 39] | > 1000 nM
36 | Cc1c(F)cccc1-c1ccc2nc(N)c(C(=O)[C@@H]3C[C@H]3F)n2c1 [Example 42] | 101 to 500 nM
37 | Cc1c(F)cccc1-c1ccc2nc(N)c(C(=O)[C@H]3C[C@@H]3F)n2c1 [Example 43] | 101 to 500 nM
38 | Cc1ccc(C(F)(F)F)cc1-c1ccc2nc(N)c(C(=O)[C@@H]3C[C@@H]3F)n2c1 [Example 45] | 101 to 500 nM
39 | Cc1c(F)cccc1-c1ccc2nc(N)c(C(=O)C3CCN3)n2c1 (stereo not shown) [Example 48] | 101 to 500 nM
40 | Cc1c(F)cccc1-c1ccc2nc(N)c(C(=O)C3CNC3)n2c1 [Example 50] | 1 to 100 nM

Now from value to compound:

Row | IC50 | SMILES
41 | 501 to 1000 nM | Cc1c(F)cccc1-c1ccc2nc(N)c(C(=O)C3CC(F)(F)C3)n2c1 [Example 46]
42 | 101 to 500 nM | Cc1c(F)cccc1-c1ccc2nc(N)c(C(=O)[C@@H]3CC3(F)F)n2c1 [Example 47]
43 | > 1000 nM | Cc1c(F)cccc1-c1ccc2nc(N)c(C(=O)C3CN(C(=O)OC(C)(C)C)C3)n2c1 [Example 49]
44 | 501 to 1000 nM | Nc1nc2ccc(-c3ccc(N4CCNCC4)cc3)cn2c1C(=O)[C@@H]1C[C@@H]1F [Example 52]
45 | 101 to 500 nM | CN1CCN(c2ccc(-c3ccc4nc(N)c(C(=O)[C@@H]5C[C@@H]5F)n4c3)cc2)CC1 [Example 53]
46 | > 1000 nM | CNc1nc2ccc(-c3cccc(F)c3C)cn2c1C(=O)[C@@H]1C[C@@H]1F [Example 54, (6-(3-fluoro-2-methylphenyl)-2-(methylamino)imidazo[1,2-a]pyridin-3-yl)((1S,2S)-2-fluorocyclopropyl)methanone]
47 | > 1000 nM | Cc1c(F)cccc1-c1ccc2nc(N(C)C)c(C(=O)[C@H]3C[C@@H]3F)n2c1 [Example 55, (2-(dimethylamino)-6-(3-fluoro-2-methylphenyl)imidazo[1,2-a]pyridin-3-yl)((1R,2S)-2-fluorocyclopropyl)methanone]
48 | 101 to 500 nM | CN1CCN(c2cccc(-c3ccc4nc(N)c(C(=O)[C@@H]5C[C@@H]5F)n4c3)c2)CC1 [Example 56]
49 | 1 to 100 nM | Nc1nc2ccc(-c3ccc4cc[nH]c4c3)cn2c1C(=O)[C@@H]1C[C@@H]1F [Example 58]
50 | 1 to 100 nM | Nc1nc2ccc(-c3cccc4cc[nH]c34)cn2c1C(=O)[C@@H]1C[C@@H]1F [Example 59]
51 | 101 to 500 nM | Cc1c(F)c(N(C)C)c2[nH]ncc2c1-c1ccc2nc(N)c(C(=O)[C@@H]3C[C@@H]3F)n2c1 [Example 61]
52 | 101 to 500 nM | CSc1c(F)c(C)c(-c2ccc3nc(N)c(C(=O)[C@@H]4C[C@@H]4F)n3c2)c2cn[nH]c12 [Example 62]
53 | 1 to 100 nM | Nc1nc2ccc(-c3ccc4occc4c3)cn2c1C(=O)[C@@H]1C[C@@H]1F [Example 63]
54 | 101 to 500 nM | CSc1c(F)c(Cl)c(-c2ccc3nc(N)c(C(=O)[C@@H]4C[C@@H]4F)n3c2)c2cn[nH]c12 [Example 66]
55 | > 1000 nM | Cc1c(F)cccc1-c1ccc2nc(NC(=O)OC(C)(C)C)c(C(=O)[C@@H]3C[C@@H]3F)n2c1 [Example 70, tert-butyl (6-(3-fluoro-2-methylphenyl)-3-((1S,2S)-2-fluorocyclopropane-1-carbonyl)imidazo[1,2-a]pyridin-2-yl)carbamate]
56 | > 1000 nM | Cc1c(F)cccc1-c1ccc2nc(N3CCCC3)c(C(=O)[C@@H]3C[C@@H]3F)n2c1 [Example 71, (6-(3-fluoro-2-methylphenyl)-2-(pyrrolidin-1-yl)imidazo[1,2-a]pyridin-3-yl)((1S,2S)-2-fluorocyclopropyl)methanone]
57 | 101 to 500 nM | Cc1cc(-c2ccc3nc(N)c(C(=O)[C@@H]4C[C@@H]4F)n3c2)sn1 [Example 72]
58 | 1 to 100 nM | Cc1c(F)cccc1-c1ccc2nc(N)c(C(=O)c3ncccn3)n2c1 [Example 76]
59 | 101 to 500 nM | Cc1c(F)cccc1-c1ccc2nc(N)c(C(=O)c3ccncn3)n2c1 [Example 77]
60 | 1 to 100 nM | Nc1nc2ccc(-c3cnc4[nH]ccc4c3)cn2c1C(=O)c1ccncn1 [Example 78]
61 | 1 to 100 nM | Nc1nc2ccc(-c3ccc4[nH]ncc4c3)cn2c1C(=O)[C@@H]1C[C@@H]1F [Example 80]
62 | 1 to 100 nM | Nc1nc2ccc(-c3ccc4[nH]ncc4c3Cl)cn2c1C(=O)[C@@H]1C[C@@H]1F [Example 81]
63 | > 1000 nM | CNCCNc1nc2ccc(-c3cccc(F)c3C)cn2c1C(=O)[C@@H]1C[C@@H]1F [Example 87, (6-(3-fluoro-2-methylphenyl)-2-((2-(methylamino)ethyl)amino)imidazo[1,2-a]pyridin-3-yl)((1S,2S)-2-fluorocyclopropyl)methanone]
64 | 101 to 500 nM | CC(=O)Nc1nc2ccc(-c3cccc(F)c3C)cn2c1C(=O)[C@@H]1C[C@@H]1F [Example 88, N-(6-(3-fluoro-2-methylphenyl)-3-((1S,2S)-2-fluorocyclopropane-1-carbonyl)imidazo[1,2-a]pyridin-2-yl)acetamide]
